Source: patent publication US8614064B2, “Methods of diagnosing atherosclerosis by measuring ApoCI” (The Johns Hopkins University, priority 2003, dated 2013)

Columns and labels:
[1] = test system: human aortic smooth muscles cells (ASMC); assay: Fluorescence microscope quantitative assay of apoptotic death (DAPI staining); format: cell-based; conditions: for apoptotic cells by white staining of the nucleus with DAPI (FIG. 1A): 2.5 μg/mL medium; for percent of apoptotic cells (DAPI, FIG. 1B): ApoCI and ApoCIII 2.5 μg/mL medium, ApoCI-enriched HDL 1 μg apoA-I/mL, ApoCI-poor HDL 5 μg apoA-I/mL, control 2.24%
Experimental: FIGS. 1A-1C depict the effect of apolipoproteins on apoptosis in human aortic smooth muscles cells (ASMC). ASMC were grown on sterilized glass cover slips and incubated for 24 hours with media alone (control), ApoCIII (negative control, 2.5 μg/mL medium), ApoCI (2.5 μg/mL medium), ApoCI-enriched HDL (1 μg apoA-I/mL medium), or ApoCI-poor HDL (5 μg apoA-I/mL medium) for 24 hours. Cells were then fixed with ethanol-acetic acid (3:1 volume/volume) and washed 3 times with phosphate-buffered saline. The cells were then stained with DAPI reagent, mounted on a glass cover slide, and subjected to fluorescence microscopy. FIG. 1A: The nucleus of normal cells stains blue and the nucleus of apoptotic cells stains is fragmented white. FIG. 1B: 300 to 500 cells in each sample were counted and the percent of apoptotic cells was plotted. Values are mean±SD; **P<0.01, ***P<0.001. FIG. 1C: DNA ladder assay. Confluent cultures of ASMC were incubated with control medium alone, ApoCI (2.5 μg/mL medium), ApoCIII (negative control, 2.5 μg/mL medium), and TNF-α (positive control, 20 ng/mL medium). Genomic DNA was extracted and 10 μg DNA was subjected to agarose gel electrophoresis. The gels were calibrated with commercially available DNA standards. After electrophoresis, the gels were stained with ethidium bromide and then photographed.
FIGS. 2A-2B depict the effect of ApoCI, the N-SMase inhibitor, GW4869, and C-2 ceramide on apoptosis in cultured human ASMC. FIG. 2A: ASMC (1×10^3) were seeded on sterilized glass cover slips and grown in tissue culture medium with 10% fetal calf serum for 48 hours. […] Thirty minutes later, vehicle DMSO, ApoCI (2.5 μg/mL), or C2-ceramide (10 μmol/L) were added to dishes, and the incubation continued for 24 hours. The cells were then fixed with ethanol-acetic acid (3:1 v/v), stained with DAPI reagent, assessed by fluorescent microscopy, and photographed. Top to bottom: control cells; cells incubated with ApoCI± the N-SMase inhibitor, GW4869; and cells incubated with ApoCI GW4869, and C2-ceramide. FIG. 2B: The DAPI-stained ASMC from the four experimental conditions described was analyzed for quantitative apoptosis. Mean (SD) from 4 experiments. *P<0.05.
Human AoSMC that were negative for mycoplasma, hepatitis B and C and HIV-1 were purchased from Clonetics (San Diego, Calif.) and cultured in Dulbecco's minimal essential medium (Invitrogen, Carlsbad, Calif.) with 10% fetal bovine serum (Hyclone, Salt Lake City, Utah), 100-units/ml penicillin, 100-μg/ml streptomycin to confluence. The cells were incubated in serum-free medium for 30 min prior to initiating the experiments. Cells were then washed and harvested in PBS, and centrifuged at 1500 rpm for 5 min at 4° C. Protease inhibitors were then added and the pellets stored frozen at −30° C. until use.
1×10^3 cells were grown on sterilized glass cover slips in 6-well trays and treated with ApoCI (2.5 μg/ml medium), ApoCIII (2.5 μg/ml medium), tumor necrosis factor (TNF)-α (30 ng/ml), ApoCI-enriched HDL (1 μg apoA-I/ml medium) and ApoCI-poor HDL (5 μg apoA-I/ml medium). After 24 h incubation, the medium was removed, cells fixed with ethanol:acetic acid […] and stored at 4° C. Next, the fixing solution was removed and cells stored frozen at −30° C. Cover slips were mounted on the microscope slides and stained with DAPI reagent (4,6-diamino-2-phenylindol, dihydrochloride). The stained nuclei were visualized by fluorescence microscopy (Zeiss Axiovert 25). Apoptotic cells were determined after counting—500 cells in a double blind fashion.

cytochrome c = assay: Cytochrome c release, Western immunoblot with densitometric scanning, ASMC; format: cell-based, human; conditions: 24 h; ApoCI and ApoCIII 2.5 μg/mL, ApoCI-enriched HDL 1 μg apoA-I/mL
Experimental: FIGS. 5A-5C depict the effect of ApoCI, ApoCIII, ApoCI-enriched HDL, and GW4869 on cytochrome c release in ASMC. After treatment of confluent cells for 24 hours with ApoCI (2.5 μg/mL medium), ApoCIII (2.5 μg/mL medium), or ApoCI-enriched HDL (1 μg apoA-I/mL medium), the cells were lysed. The cell lysate was used as the source of cytochrome c, and the pellet was used as a source of caspase-3. The cell lysates were separated by SDS-polyacrylamide gel electrophoresis, blotted onto nitrocellulose, and cytochrome c detected using a polyclonal antibody against cytochrome c (FIG. 5A, top panel). The gels were then subjected to densitometric scanning (FIG. 5B, middle panel). In a separate experiment (FIG. 5C, right), confluent cells were grown on cover slips and pretreated with serum-free medium for 30 minutes. The cells were then incubated with control medium, ApoCI (2.5 μg/mL medium), TNF-α (20 ng/mL), or ApoCI (2.5 μg/mL)+GW4869 (20 μmol/L) for 24 hours. The cells were then washed, treated with a primary anti-cytochrome c antibody, washed with phosphate-buffered saline, and treated with a fluorescein isothiocyanate-conjugated anti-rabbit IgG (FIG. 5C, lower panel). […]

Compound | apoptotic cells by white staining of the nucleus with DAPI (FIG. 1A) ([1]; 24 h) | percent of apoptotic cells (DAPI, FIG. 1B) ([1]; 24 h) [%] | ApoCI-induced apoptosis, percent apoptotic cells (FIG. 2B) ([1]; ApoCI 2.5 μg/mL, 24 h, control ~2%) [%] | stimulation of the release of cytochrome c (cytochrome c) [fold] | effect of GW4869 on ApoCI-induced apoptosis, lower dose ([1]; GW4869 10 μmol/L) | effect of GW4869 on ApoCI-induced apoptosis ([1]; GW4869 20 μmol/L, 30 min before ApoCI 2.5 μg/mL, 24 h)
Apolipoprotein C-I (TPDVSSALDKLKEFGNTLEDKARELISRIKQSELSAKMREWFSETFQKVKEKLKIDS; UniProt P02654 27-83, looked up) [ApoCI, 6.6-kDa single-chain plasma protein of 57 amino acids; purified human ApoCI purchased from Academy Bio-Medical Company] | many apoptotic cells | 26.19 | ~12 | 4.1 |  | 
ApoCIII: purified human ApoCIII purchased from Academy Bio-Medical Company, used as negative control | only a few apoptotic cells | 4.78 |  | 2.3 |  | 
O=C(/C=C/c1ccc(/C=C/C(=O)Nc2ccc(C3=NCCN3)cc2)cc1)Nc1ccc(C2=NCCN2)cc1 [GW4869] |  |  |  |  | also observed | completely abrogated
